Patent US8222270B2 (Medicis Pharmaceutical Corporation, priority 2008, dated 2012)

Legend:
[1] = Stability of calibration standards in spent receiver fluid; assay type: physicochemical; settings: vs T = 0
[2] = Oral embryofetal development study; assay type: in vivo, rats
Method: Systemic embryofetal development studies were conducted in rats and rabbits.

[3] = Method: A combined fertility and peri- and post-natal development study was conducted in rats.

In the case of `CC(C)Cn1cnc2c(N)nc3ccccc3c21` [imiquimod, 1-(2-methylpropyl)-1H-imidazo[4,5-c]quinolin-4-amine], the “48 h % recovered in Spent receiver fluid” value ([1]; Standard 52.75 μg/ml, Epidermal sheet + placebo, 37° C.) is reported as 86.906%, the “48 h % recovered in Spent receiver fluid” value ([1]; Standard 52.75 μg/ml, Epidermal sheet + placebo, Fridge) is reported as 85.635% and the “48 h % recovered in Spent receiver fluid” value ([1]; Standard 52.75 μg/ml, Epidermal sheet + placebo, RT) is reported as 88.169%. The “48 h % recovered in Spent receiver fluid” value ([1]; Standard 52.75 μg/ml, Epidermal sheet, 37° C.) was 90.943%, the “48 h % recovered in Spent receiver fluid” value ([1]; Standard 52.75 μg/ml, Epidermal sheet, Fridge) was 87.669% and the “48 h % recovered in Spent receiver fluid” value ([1]; Standard 52.75 μg/ml, Epidermal sheet, RT) was 89.096%. For the same compound, the “48 h % recovered in Spent receiver fluid” value ([1]; Standard 52.75 μg/ml, Full thickness + placebo, 37° C.) was 93.779%, the “48 h % recovered in Spent receiver fluid” value ([1]; Standard 52.75 μg/ml, Full thickness + placebo, Fridge) was 91.776% and the “48 h % recovered in Spent receiver fluid” value ([1]; Standard 52.75 μg/ml, Full thickness + placebo, RT) was 92.027%. The “48 h % recovered in Spent receiver fluid” value ([1]; Standard 52.75 μg/ml, Full thickness, 37° C.) was 95.282%, the “48 h % recovered in Spent receiver fluid” value ([1]; Standard 52.75 μg/ml, Full thickness, Fridge) was 92.317% and the “48 h % recovered in Spent receiver fluid” value ([1]; Standard 52.75 μg/ml, Full thickness, RT) was 92.152%. For the same compound, the “48 h % recovered in Spent receiver fluid” value ([1]; Standard 84.4 μg/ml, Epidermal sheet + placebo, 37° C.) was 98.178%, the “48 h % recovered in Spent receiver fluid” value ([1]; Standard 84.4 μg/ml, Epidermal sheet + placebo, Fridge) was 95.620% and the “48 h % recovered in Spent receiver fluid” value ([1]; Standard 84.4 μg/ml, Epidermal sheet + placebo, RT) was 96.033%. For the same compound, the “48 h % recovered in Spent receiver fluid” value ([1]; Standard 84.4 μg/ml, Epidermal sheet, 37° C.) was 82.694%, the “48 h % recovered in Spent receiver fluid” value ([1]; Standard 84.4 μg/ml, Epidermal sheet, Fridge) was 81.350% and the “48 h % recovered in Spent receiver fluid” value ([1]; Standard 84.4 μg/ml, Epidermal sheet, RT) was 82.276%. The “48 h % recovered in Spent receiver fluid” value ([1]; Standard 84.4 μg/ml, Full thickness + placebo, 37° C.) was 85.629%, the “48 h % recovered in Spent receiver fluid” value ([1]; Standard 84.4 μg/ml, Full thickness + placebo, Fridge) was 84.561% and the “48 h % recovered in Spent receiver fluid” value ([1]; Standard 84.4 μg/ml, Full thickness + placebo, RT) was 84.421%. For the same compound, the “48 h % recovered in Spent receiver fluid” value ([1]; Standard 84.4 μg/ml, Full thickness, 37° C.) was 101.010%, the “48 h % recovered in Spent receiver fluid” value ([1]; Standard 84.4 μg/ml, Full thickness, Fridge) was 98.841% and the “48 h % recovered in Spent receiver fluid” value ([1]; Standard 84.4 μg/ml, Full thickness, RT) was 99.790%. For the same compound, the “48 h % recovered in Spent receiver fluid” value ([1]; Standard 105.5 μg/ml, Epidermal sheet + placebo, 37° C.) was 84.903%, the “48 h % recovered in Spent receiver fluid” value ([1]; Standard 105.5 μg/ml, Epidermal sheet + placebo, Fridge) was 83.833% and the “48 h % recovered in Spent receiver fluid” value ([1]; Standard 105.5 μg/ml, Epidermal sheet + placebo, RT) was 84.515%. For the same compound, the “48 h % recovered in Spent receiver fluid” value ([1]; Standard 105.5 μg/ml, Epidermal sheet, 37° C.) was 91.501%, the “48 h % recovered in Spent receiver fluid” value ([1]; Standard 105.5 μg/ml, Epidermal sheet, Fridge) was 90.465% and the “48 h % recovered in Spent receiver fluid” value ([1]; Standard 105.5 μg/ml, Epidermal sheet, RT) was 92.089%. The “48 h % recovered in Spent receiver fluid” value ([1]; Standard 105.5 μg/ml, Full thickness + placebo, 37° C.) was 91.704%, the “48 h % recovered in Spent receiver fluid” value ([1]; Standard 105.5 μg/ml, Full thickness + placebo, Fridge) was 88.242% and the “48 h % recovered in Spent receiver fluid” value ([1]; Standard 105.5 μg/ml, Full thickness + placebo, RT) was 88.546%. For the same compound, the “48 h % recovered in Spent receiver fluid” value ([1]; Standard 105.5 μg/ml, Full thickness, 37° C.) was 92.278%, the “48 h % recovered in Spent receiver fluid” value ([1]; Standard 105.5 μg/ml, Full thickness, Fridge) was 90.545% and the “48 h % recovered in Spent receiver fluid” value ([1]; Standard 105.5 μg/ml, Full thickness, RT) was 92.275%. The “48 h % recovered in Spent receiver fluid” value ([1]; Standard […] μg/ml, Epidermal sheet + placebo, 37° C.) was 89.945%, the “48 h % recovered in Spent receiver fluid” value ([1]; Standard […] μg/ml, Epidermal sheet + placebo, Fridge) was 84.046% and the “48 h % recovered in Spent receiver fluid” value ([1]; Standard […] μg/ml, Epidermal sheet + placebo, RT) was 85.095%. For the same compound, the “48 h % recovered in Spent receiver fluid” value ([1]; Standard […] μg/ml, Epidermal sheet, 37° C.) was 97.099%, the “48 h % recovered in Spent receiver fluid” value ([1]; Standard […] μg/ml, Epidermal sheet, Fridge) was 93.180% and the “48 h % recovered in Spent receiver fluid” value ([1]; Standard […] μg/ml, Epidermal sheet, RT) was 94.971%. The “48 h % recovered in Spent receiver fluid” value ([1]; Standard […] μg/ml, Full thickness + placebo, 37° C.) was 90.798%, the “48 h % recovered in Spent receiver fluid” value ([1]; Standard […] μg/ml, Full thickness + placebo, Fridge) was 88.307% and the “48 h % recovered in Spent receiver fluid” value ([1]; Standard […] μg/ml, Full thickness + placebo, RT) was 86.897%. For the same compound, the “48 h % recovered in Spent receiver fluid” value ([1]; Standard […] μg/ml, Full thickness, 37° C.) was 97.826%, the “48 h % recovered in Spent receiver fluid” value ([1]; Standard […] μg/ml, Full thickness, Fridge) was 94.989% and the “48 h % recovered in Spent receiver fluid” value ([1]; Standard […] μg/ml, Full thickness, RT) was 93.522%. The “Exposure multiple at dose with fetal effects” value ([2]; female, rat, in vivo) was 427 ×MRHD based on AUC comparisons, the “Exposure multiple at no-effect dose” value ([2]; female, rat, in vivo) was 83 ×MRBD based on AUC comparisons and the Teratogenicity ([2]; female, rat, in vivo) was “not teratogenic”. For the same compound, the “High maternally toxic dose with reduced pup weights and delayed ossification” value ([2]; female, rat, in vivo, 20 mg/kg/day) was 28 times human dose on a mg/m^2 basis, the “Dose at which fetal effects were noted (in the presence of maternal toxicity)” value ([2]; oral, gestational days 6-15) was 20 mg/kg/day and the “Dose with no treatment related effects on embryofetal toxicity or teratogenicity” value ([2]; oral, gestational days 6-15) was 5 mg/kg/day. For the same compound, the “Exposure multiple at dose without teratogenicity” value ([3]; 3 mg/kg/day) was 27 ×MRHD based on AUC comparisons, the “Dose up to which no impairment of reproduction was demonstrated” value ([3]; daily oral, throughout mating, gestation, parturition and lactation) was 8 times recommended human dose on a mg/m^2 basis and the “Dose at which bent limb bones were noted in the F1 fetuses” value ([3]; in the absence of maternal toxicity) was 6 mg/kg/day. For the same compound, the “Dose with no treatment related effects on teratogenicity” value ([3]; oral) was 3 mg/kg/day.
